These compounds were tested against T1, His-TEV-DYRK1A Kinase domain (aa127-485) (Homo sapiens, UniProt Q13627) (assay: Kinase ADP assay (ADP Hunter), DYRK1A kinase domain). Conditions: 20 μM ATP.
T1 construct: His-TEV-DYRK1A Kinase domain (aa127-485); His tag (N); TEV protease cleavage site (N)
Format: biochemical
Experimental: The enzyme reaction was conducted in assay buffer (pH 7.4), containing 15 mM Hepes; 20 mM NaCl; 1 mM EGTA; 10 mM MgCl2; 0.02% Tween20 and 0.1 mg/ml Bovine-y-globulin. Test compounds of the invention were added in reaction buffer in a range of concentrations for 10 minutes at 30° C. in the presence of 20 nM DYRK1A enzyme, 40 μM peptide substrate and 20 μM ATP. Detection reagents (DiscoveRx 90-0083), ADP Hunter Plus Reagent A and then ADP Hunter Plus Reagent B were added. After a following 20 minutes incubation at 30° C., ADP Hunter Plus Stop Solution was added. The fluorescence intensity was measured at 590 nm.
“4-{3-[2-(2,6-dimethoxyphenoxy)ethyl]-3H-imidazo[4,5-b]pyridin-5-yl}pyridine-2,6-diamine [Example 213]” was tested, and the IC50 was 0.069 µM. `Cc1nc2ccc(-c3cc(N)nc(N)c3)nc2n1[C@H](C)COc1ccccc1` (single isomer, unassigned) [Example 104] showed an IC50 of 0.045 µM. Compound `Cc1nc2ccc(-c3cc(N)nc(N)c3)nc2n1[C@@H](C)COc1ccccc1` (single isomer, unassigned) [Example 105] has an IC50 of 0.092 µM. In the case of `Cc1nc2ccc(-c3cc(N)nc(N)c3)nc2n1C[C@@H](C)Oc1ccccc1Cl` (single isomer, unassigned) [Example 118], the IC50 is reported as 0.031 µM. `Cc1nc2ccc(-c3cc(N)nc(N)c3)nc2n1C[C@@H](C)Oc1ccc(F)cc1` (single isomer, unassigned) [Example 130] gave an IC50 of 0.058 µM. In the case of `COc1ccccc1O[C@H](C)Cn1c(C)nc2ccc(-c3cc(N)nc(N)c3)nc21` (single isomer, unassigned) [Example 142], the IC50 is reported as 0.037 µM. In the case of `Cc1nc2ccc(-c3cc(N)nc(N)c3)nc2n1C[C@H](C)Oc1ccc(F)cn1` (single isomer, unassigned) [Example 178], the IC50 is reported as 0.176 µM. `Cc1nc2ccc(-c3cc(N)nc(N)c3)nc2n1C[C@@H](C)Oc1cccc(Br)n1` (single isomer, unassigned) [Example 181] was tested, and the IC50 was 0.081 µM. Work on `Cc1nc2ccc(-c3cc(N)nc(N)c3)nc2n1C[C@@H](C)Oc1ncccc1Br` (single isomer, unassigned) [Example 183] yielded an IC50 of 0.226 µM. `Cc1nc2ccc(-c3cc(N)nc(N)c3)nc2n1C[C@H](C)Oc1ccc(Cl)cn1` (single isomer, unassigned) [Example 184] gave an IC50 of 0.165 µM. `Cc1nc2ccc(-c3cc(N)nc(N)c3)nc2n1C[C@@H](C)Oc1ccc(Cl)cn1` (single isomer, unassigned) [Example 185] showed an IC50 of 0.041 µM. Compound `Cc1nc2ccc(-c3cc(N)nc(N)c3)nc2n1C[C@H](C)Oc1ccc(Br)cn1` (single isomer, unassigned) [Example 186] has an IC50 of 0.154 µM. `Cc1nc2ccc(-c3cc(N)nc(N)c3)nc2n1C[C@@H](C)Oc1ncccc1Cl` (single isomer, unassigned) [Example 191] showed an IC50 of 0.2 µM. `Cc1nc2ccc(-c3cc(N)nc(N)c3)nc2n1C[C@H](C)Oc1nc(F)ccc1F` (single isomer, unassigned) [Example 192] showed an IC50 of 0.084 µM. Compound `Cc1nc2ccc(-c3cc(N)nc(N)c3)nc2n1C[C@@H](C)Oc1nc(F)ccc1F` (single isomer, unassigned) [Example 193] has an IC50 of 0.028 µM. `Cc1nc2ccc(-c3cc(N)nc(N)c3)nc2n1CCCCO` [Example 70, 4-[5-(2,6-diaminopyridin-4-yl)-2-methyl-3H-imidazo[4,5-b]pyridin-3-yl]butan-1-ol] was tested, and the IC50 was 0.013 µM. In the case of `Cc1nc2ccc(-c3cc(N)nc(N)c3)nc2n1CC1CCCOC1` (stereo not drawn) [Example 76, 4-[2-methyl-3-(tetrahydro-2H-pyran-3-ylmethyl)-3H-imidazo[4,5-b]pyridin-5-yl]pyridine-2,6-diamine], the IC50 is reported as 0.04 µM. `Cc1nc2ccc(-c3cc(N)nc(N)c3)nc2n1CC1CCOCC1` [Example 80, 4-[2-methyl-3-(tetrahydro-2H-pyran-4-ylmethyl)-3H-imidazo[4,5-b]pyridin-5-yl]pyridine-2,6-diamine] was tested, and the IC50 was 0.043 µM. Work on `Cc1nc2ccc(-c3cc(N)nc(N)c3)nc2n1C(C)Cc1ccco1` (stereo not drawn) [Example 82, 4-{3-[1-(furan-2-yl)propan-2-yl]-2-methyl-3H-imidazo[4,5-b]pyridin-5-yl}pyridine-2,6-diamine] yielded an IC50 of 0.096 µM. `Cc1nc2ccc(-c3cc(N)nc(N)c3)nc2n1CCc1cccc(OC(C)C)c1` [Example 87] was tested, and the IC50 was 0.017 µM. For `Cc1nc2ccc(-c3cc(N)nc(N)c3)nc2n1CCC1CCCCC1C` (stereo not drawn) [Example 102, 4-{2-methyl-3-[2-(2-methylcyclohexyl)ethyl]-3H-imidazo[4,5-b]pyridin-5-yl}pyridine-2,6-diamine], the IC50 was 0.017 µM. `Cc1nc2ccc(-c3cc(N)nc(N)c3)nc2n1C/C=C/c1ccccc1` [Example 111, 4-{2-methyl-3-[(2E)-3-phenylprop-2-en-1-yl]-3H-imidazo[4,5-b]pyridin-5-yl}pyridine-2,6-diamine] was tested, and the IC50 was 0.012 µM. `CCCCc1nc2ccc(-c3cc(N)nc(N)c3)nc2n1CCOc1ccccc1` [Example 146, 4-[2-butyl-3-(2-phenoxyethyl)-3H-imidazo[4,5-b]pyridin-5-yl]pyridine-2,6-diamine] gave an IC50 of 0.089 µM. `CCCCc1nc2ccc(-c3cc(N)nc(N)c3)nc2n1C` [Example 147, 4-(2-butyl-3-methyl-3H-imidazo[4,5-b]pyridin-5-yl)pyridine-2,6-diamine] gave an IC50 of 0.021 µM. In the case of `CCc1nc2ccc(-c3cc(N)nc(N)c3)nc2n1C` [Example 159, 4-(2-ethyl-3-methyl-3H-imidazo[4,5-b]pyridin-5-yl)pyridine-2,6-diamine], the IC50 is reported as 0.043 µM. `CCCc1nc2ccc(-c3cc(N)nc(N)c3)nc2n1CCOc1ccccc1` [Example 162, 4-[3-(2-phenoxyethyl)-2-propyl-3H-imidazo[4,5-b]pyridin-5-yl]pyridine-2,6-diamine] was tested, and the IC50 was 0.056 µM. Work on `CCCc1nc2ccc(-c3cc(N)nc(N)c3)nc2n1C` [Example 163, 4-(3-methyl-2-propyl-31-imidazo[4,5-b]pyridin-5-yl)pyridine-2,6-diamine] yielded an IC50 of 0.033 µM. `Cc1nc2ccc(-c3cc(N)nc(N)c3)nc2n1CCOc1ncccc1Br` [Example 169, 4-(3-{2-[(3-bromopyridin-2-yl)oxy]ethyl}-2-methyl-3H-imidazo[4,5-b]pyridin-5-yl)pyridine-2,6-diamine] gave an IC50 of 0.055 µM. In the case of `Cc1nc2ccc(-c3cc(N)nc(N)c3)nc2n1C[C@@H](C)Oc1ccc(Br)cn1` [Example 187], the IC50 is reported as 0.082 µM. In the case of `Cc1cccc(OCCn2c(C)nc3ccc(-c4cc(N)nc(N)c4)nc32)c1` [Example 201, 4-{2-methyl-3-[2-(3-methylphenoxy)ethyl]-3H-imidazo[4,5-b]pyridin-5-yl}pyridine-2,6-diamine], the IC50 is reported as 0.021 µM. Work on `Cc1nc2ccc(-c3cc(N)nc(N)c3)nc2n1CCOc1ccccc1Cl` [Example 204, 4-{3-[2-(2-chlorophenoxy)ethyl]-2-methyl-3H-imidazo[4,5-b]pyridin-5-yl}pyridine-2,6-diamine] yielded an IC50 of 0.041 µM. `Cc1ccccc1OCCn1c(C)nc2ccc(-c3cc(N)nc(N)c3)nc21` [Example 205, 4-{2-methyl-3-[2-(2-methylphenoxy)ethyl]-3H-imidazo[4,5-b]pyridin-5-yl}pyridine-2,6-diamine] gave an IC50 of 0.03 µM. With `COc1ccc(OCCn2c(C)nc3ccc(-c4cc(N)nc(N)c4)nc32)cc1` [Example 209, 4-{3-[2-(4-methoxyphenoxy)ethyl]-2-methyl-3H-imidazo[4,5-b]pyridin-5-yl}pyridine-2,6-diamine] the IC50 was 0.025 µM. `COc1ccc(C)cc1OCCn1c(C)nc2ccc(-c3cc(N)nc(N)c3)nc21` [Example 211, 4-{3-[2-(2-methoxy-5-methylphenoxy)ethyl]-2-methyl-3H-imidazo[4,5-b]pyridin-5-yl}pyridine-2,6-diamine] was tested, and the IC50 was 0.049 µM. `Cc1nc2ccc(-c3cc(N)nc(N)c3)nc2n1CCOc1ccccc1OC(C)C` [Example 214, 4-(2-methyl-3-{2-[2-(propan-2-yloxy)phenoxy]ethyl}-3H-imidazo[4,5-b]pyridin-5-yl)pyridine-2,6-diamine] gave an IC50 of 0.072 µM. In the case of `CCOc1ccccc1OCCn1c(C)nc2ccc(-c3cc(N)nc(N)c3)nc21` [Example 215, 4-{3-[2-(2-ethoxyphenoxy)ethyl]-2-methyl-3H-imidazo[4,5-b]pyridin-5-yl}pyridine-2,6-diamine], the IC50 is reported as 0.066 µM. `Cc1nc2ccc(-c3cc(N)nc(N)c3)nc2n1CCOc1cccnc1` [Example 216, 4-{2-methyl-3-[2-(pyridin-3-yloxy)ethyl]-3H-imidazo[4,5-b]pyridin-5-yl}pyridine-2,6-diamine] gave an IC50 of 0.029 µM. With `Cc1nc2ccc(-c3cc(N)nc(N)c3)nc2n1CCOc1ccnn1C` [Example 218, 4-(2-methyl-3-{2-[(1-methyl-1H-pyrazol-5-yl)oxy]ethyl}-3H-imidazo[4,5-b]pyridin-5-yl)pyridine-2,6-diamine] the IC50 was 0.057 µM. In the case of `Cc1nc2ccc(-c3cc(N)nc(N)c3)nc2n1CCOc1ncccn1` [Example 219, 4-{2-methyl-3-[2-(pyrimidin-2-yloxy)ethyl]-3H-imidazo[4,5-b]pyridin-5-yl}pyridine-2,6-diamine], the IC50 is reported as 0.04 µM. `C=CCCn1c(C)nc2ccc(-c3ccnc(N)c3)nc21` [Example 239, 4-[3-(but-3-en-1-yl)-2-methyl-3H-imidazo[4,5-b]pyridin-5-yl]pyridin-2-amine] was tested, and the IC50 was 0.068 µM. Work on `Cc1nc2ccc(-c3cc(F)nc(N)c3F)nc2n1C1CC1` [Example 241, 4-(3-cyclopropyl-2-methyl-3H-imidazo[4,5-b]pyridin-5-yl)-3,6-difluoropyridin-2-amine] yielded an IC50 of 0.098 µM. `Cc1nc2ccc(-c3c(F)c(N)nc(N)c3F)nc2n1C1CC1` [Example 242, 4-(3-cyclopropyl-2-methyl-3H-imidazo[4,5-b]pyridin-5-yl)-3,5-difluoropyridine-2,6-diamine] showed an IC50 of 0.154 µM.

Reference: patent publication US20180273528A1 (LES LABORATOIRES SERVIER, priority 2015, published 2018)
